A short description of series [1]: Pig study: clearance of iohexol to monitor filter clearance. The series is classed as in vivo. Conditions: Swedish Land Race, plasma and dialysing solution, intravenous, 6000 mg, dialysis filter clearance, measured every half-hour, two experiments. The procedure: (§1) Before connection of the efferent and afferent blood lines, 20 mL (300 mg/mL) of iohexol (Omnipaque®, Nycomed AB, Lidingö, Sweden) was administered in the ear vein to monitor filter clearance. Two minutes before the start of dialysis, 0.15 μmol/kg of melagatran was given via the right femoral vein as a bolus.
Amounts of iohexol in plasma and dialysing solution were determined at the Laboratory of the Division of Nephrology (Sahlgren's University Hospital, Gothenberg, Sweden) using a Reanalyzer PRX 90 (Provalid AB Lund, Sweden).

A short description of series [2]: Pig study: concentration of melagatran in plasma and dialysis outlet during dialysis. It counts as in vivo. The procedure:
Two Swedish Land Race pigs weighing 59 and 57 kg respectively were used. Anaesthesia was induced using Ketaminol® (10 mg/kg, i.m. Veterinaria AG, Switzerland) and Dormicum® (1 to 2 mg/kg, i.m. Roche, Basel, Switzerland), followed by, after 20 minutes, Diprivan® ([…] i.v. Zeneca Limited, Macclesfield, Cheshire, United Kingdom), intubated and ventilated at 15 cycles/minute with air containing 2 to 3% Forene® (Abbott Scandinavia AB, Kista. Sweden) using a Servo Ventilator 900C (Siemens Elema, Solna, Sweden).
(§2) The anaesthetised pigs were subjected to bilateral ligation of renal arteries and veins using lateral flank approaches. The wounds were then closed and the animals were placed on their backs. Two catheters (Kimal, K41/3B/LL, Uxbridge, England) were inserted into the right femoral artery and vein for connection to the dialysis equipment. The artery catheter was used to provide blood to (efferent blood line), and the vein catheter to receive blood from (afferent blood line), the dialysis filter. One polyethylene catheter (Intramedic PE-200, Clay Adams, Parsippany, N.J., USA) was inserted into an artery (right saphenous in pig A and brachial in pig B) for blood pressure (MAP) recording (transducer Peter von Berg Medizintechnik GmbH, Kirchseeon/Eglharting, Germany) and for blood samples, pH and blood gas measurements.
(§3) Before the start of dialysis, the LunDia Pro 600 dialysis filter (Gambro, Lund, Sweden) was primed on both sides for 15 minutes with Biosol A201.5 glucose (Pharmalink, Solna, Sweden) dialysis concentrate diluted 1:35 using a Gambro AK-100 (Grambro. Lund, Sweden) haemodialysis equipment (see FIG. 5). The dialysis concentrate was supplemented with melagatran (35 μM; thus providing 1 μM after dilution). The flow rate was adjusted to 500 mL/min on the dialysing solution side and to 250 mL/min on the blood side of the membrane by separate pumps. Pressure was measured (transducer Peter von Berg Medizintechnik) on both sides of the dialysis membrane.
as §1
After connection of blood lines and two minutes after the administration of the melagatran bolus dose, dialysis was started and carried out for 3 hours. Then, the procedure was interrupted, the blood lines disconnected and the filter and blood lines washed by pumping saline instead of blood to check for the presence of macroscopic blood clots.
The amount of melagatran in plasma was quantified using liquid chromatographic and mass spectrometric methods (BA-285, AstraZeneca R&D, Mölndal, Sweden).

Series [3] relates to anaesthetised pigs without kidney function. As to the kind of experiment: Pig study: prevention of coagulation and maintained filter function during haemodialysis. It counts as in vivo.
Text: The aim of this study was to test whether melagatran, given via the dialysing solution during dialysis could prevent coagulation and allow a maintained filter function throughout the session in acute experiments with anaesthetised pigs without kidney function.
To avoid very early thrombotic occlusion of blood lines and filters, which, if observed, would have prevented the drawing of meaningful conclusions regarding the utility of the method, an i.v. bolus dose of melagatran was given immediately before the start of extracorporeal blood circulation in these experiments.
as §2
as §3, with “membrane. […]” for “membrane.”

Series [4] addresses T1, thrombin (Sus scrofa, UniProt Q19AZ8). Conditions: TAS equipment, during dialysis session.
Procedure: For the determination of activated partial thromboplastin time (APTT), ecarin clotting time (ECT) and the amount of melagatran in plasma, twelve aliquots of blood were drawn at specific time points into plastic tubes containing one volume of 0.13 M sodium citrate. Plasma was recovered after immediate centrifugation (10,000 g for 5 minutes) and stored at −20° C. prior to analysis. For the determination of the amount of iohexol in plasma, blood was drawn in heparinized tubes, centrifuged is (10,000 g for 5 minutes) and stored at −20° C. prior to analysis.
ECT was determined in 30 μL citrate plasma using a TAS device (Thrombolytic Assessment System, Cardiovascular Diagnostics Inc., Raleigh, N.C.) and appropriate solid reagent test cards, as recommended.
For series [5], the target named is T1, thrombin. Conditions: during dialysis session.
Procedure: For the determination of activated partial thromboplastin time (APTT), ecarin clotting time (ECT) and the amount of melagatran in plasma, twelve aliquots of blood were drawn at specific time points into plastic tubes containing one volume of 0.13 M sodium citrate. Plasma was recovered after immediate centrifugation (10,000 g for 5 minutes) and stored at −20° C. prior to analysis.
APTT was determined using a KC10 A micro coagulometer (Amelung, Lemago, Germany). 25 μL of citrate plasma was incubated with 25 μL of PTT-Automate reagent (Diagnostica Stago, Asnieres, France) for 3 minutes. Coagulation was started using 25 μL of 0.025 M CaCl2 (Diagnostica Stago, Asniéres. France) and the time taken to the start of coagulation was measured.

`CC(=O)N(CC(O)CO)c1c(I)c(C(=O)NCC(O)CO)c(I)c(C(=O)NCC(O)CO)c1I` (stereo not shown) [iohexol]: the clearance in series [1] was about 150 mL/min.

In the case of `N=C(N)c1ccc(CNC(=O)[C@@H]2CCN2C(=O)[C@H](NCC(=O)O)C2CCCCC2)cc1` [melagatran, HOOC—CH2—(R)Cgl-Aze-Pab-H], the concentration at 2 min in series [2] (Swedish Land Race, pig, plasma, iv, 0.15 μmol/kg, start of dialysis, 2 minutes after i.v. bolus dose, both pigs, read-out: concentration of melagatran in plasma (efferent blood)) fell in the range of 900 to 1000 nM. In addition, the time to equilibration result in series [2] (acutely anuric pig) was “within one hour”. Also, the “concentration of melagatran in the dialysis outlet, higher than on the blood side” value in series [2] (except the very first sample at the start of dialysis) was “about 0.2 μM”. Further, in series [2] (over the first ˜0 minutes of dialysis, then quite constant, dialysing solution 1 μM expected), the “concentration of melagatran in plasma, level-off” value was “about 0.25 μM”. Also, the “macroscopic thrombi in filters and tubing after dialysis” value in series [3] (3 hour dialysis, both pigs, washed with saline over 15 minutes) is reported as “macroscopic thrombi had not been formed”. In addition, the filter function entry in series [3] (judged from iohexol clearance, 3 hours of dialysis) is “filter function was maintained over the full 3 hours of dialysis”. Besides, the “pressure in the efferent blood-line” value in series [3] (one pig, 3 hour dialysis, stable) is given as “about 275 mm Hg”. Further, at thrombin [4], the “ecarin clotting times (ECT), relation to drug concentration in plasma” value is reported as “closely reflected drug concentrations in plasma”. In addition, the “APTT times, relation to melagatran concentration” value at thrombin [5] is on record as “proportional to the logarithm of melagatran concentration”.

The values are drawn from patent US20090192137A1, “Dialysis method” (AstraZeneca AB, priority 1993, published 2009).
